# Measured values: patent US20090005326A1, “SINGLE DOSE ROXITHROMYCIN” (priority 2007, published 2009)
# Like-named read-outs stand apart in the source and are kept apart here.
# Key:
# [1] = cat, single oral dose 20 mg/kg, capsule of powdered roxithromycin
# Streptococcus pyogenes = assay: MIC, single disc method; format: cell-based
# Method: (§1) Typically, to be effective, the minimum inhibitory concentration of the roxithromycin against a specific bacteria should be less than 10 μg/mL, preferably less than 5 μg/mL, more preferably less than 2 μg/mL, even more preferably less than 1 μg/mL, and most preferably less than 0.5 μg/mL. The activity of roxithromycin against a bacteria can be determined using standard dilution tests. For example, the minimum inhibitory concentrations can be determined using the disk diffusion susceptibility testing method described in Clinical Microbiology Procedures Handbook, volume 1, edited by Henry D. Isenberg, American Society for Microbiology, 1992, section 5.1 or the well known method of Bauer et al. “Antibiotic Susceptibility Testing by a Standardized Single Disc Method,” Amer. J. Clin. Pathol., 45, p. 493-496.
# (§2) FIG. 1 provides a graphical representation of the average plasma serum concentration of roxithromycin as a function of time for the 5 cats that were administered a single dose of roxithromycin by subcutaneous injection at a dose of 10 mg/kg as a formulation containing 200 mg/mL of roxithromycin in 10% propylene glycol in glycerol formal. […] J. Clin. Pathol., 45, p. 493-496.
# Staphylococcus aureus = assay: MIC, single disc method; format: cell-based
# Method: as §1, §2
# Bacillus subtilis = assay: MIC, single disc method; format: cell-based
# Method: as §1, §2
# Escherichia coli = assay: MIC, single disc method; format: cell-based
# Method: as §1, §2
# Streptococcus pneumoniae = assay: MIC, single disc method; format: cell-based
# Method: as §1, §2
# Enterococcus faecalis = assay: MIC, single disc method; format: cell-based
# Method: as §1, §2
# Clostridium perfringes = assay: MIC, single disc method; format: cell-based
# Method: as §1, §2
# Pasteurella multocida = assay: MIC, single disc method; format: cell-based
# Method: as §1, §2
# [2] = Serum concentration after single subcutaneous injection to cats; format: in vivo; settings: cat, single subcutaneous injection 10 mg/kg, 200 mg/mL in 10% propylene glycol in glycerol formal
# Method: Five cats (mixed breed of various sizes, males and female, approximately 4 kg) were administered 10 mg/kg of a roxithromycin composition by subcutaneous injection between the shoulder blades. The roxithromycin composition was prepared by weighing 5.128 g of roxithromycin (purity 97.5%) into a 25 mL volumetric flask, adding 2.5 mL of propylene glycol, and filling to volume with stabilized glycerol formal.
# Cats were kept in a stainless steel, suspended, wire bottom cage, at least 3′×3′, provided with a litter box in an environmentally controlled room (22±3° C., a relative humidity of 30-80%, a 12 hour light/dark schedule, and room ventilation of approximately 10-12 air changes per hour.) Tap water was available ad libitum and the cats were fed PMI Feline Lab Diet #5003 or other commercial product.
# Blood samples were collected on Day-1 and approximately 1 mL of whole blood was collected at 1, 8, 24, 36, 48, 60, and 72 hr following dosing and twice-daily thereafter through study termination on day 10. […] The dose site was monitored daily during the study.
# The serum was analyzed by high pressure liquid chromatograph (“HPLC”) using the following procedure: […]
# The serum concentration of roxithromycin was then determined by comparing the area under the curve for the HPLC peak corresponding to roxithromycin to a standard curve of peak areas v. known concentrations of roxithromycin in serum. […]
# [3] = in humans; cited from earlier work
# [4] = literature; cited from earlier work
# [5] = Elimination T1/2 of roxithromycin in a cat; format: in vivo; settings: administered to a cat; route and dose not stated
# Method: The phrase “elimination half life” or “T1/2,” as used herein, has the conventional meaning used in pharmacokinetics, i.e., the time taken for the maximum plasma concentration (Cmax) of a drug to reduce by 50%.
# Therefore, the rate of clearance of roxithromycin from a cat, i.e., as measured by the T1/2, is much slower than when roxithromycin is administered to, for example, a human. The unexpectedly slow rate of clearance (long T1/2) allows bacterial infections in cats to be advantageously treated with a single administration of roxithromycin administered either orally or by injection. Treating a bacterial infection using a single dose of roxithromycin is simpler, more cost effective, and results in better patient compliance. Furthermore, single dose administration of roxithromycin is believed to reduce the risk of microbial strains emerging that are resistant to roxithromycin. Single dose administration of roxithromycin by injection is advantageous because administration by injection bypasses liver metabolism and the single administration precludes multiple visits to the veterinarian. Single dose administration orally, however, is less painful and can permit administration without requiring a visit to the veterinarian.
substance,measurement,setting,value
roxithromycin,time for which serum concentration exceeds the MIC for several bacterial organisms,[1],at least 150 hours
same,Minimum Inhibitory Concentration (MIC),Streptococcus pyogenes,0.25 µg/mL
same,Minimum Inhibitory Concentration (MIC),Staphylococcus aureus,0.25 µg/mL
same,Minimum Inhibitory Concentration (MIC),Bacillus subtilis,0.25 µg/mL
same,Minimum Inhibitory Concentration (MIC),Escherichia coli,32 µg/mL
same,Minimum Inhibitory Concentration (MIC),Streptococcus pneumoniae,0.25 µg/mL
same,Minimum Inhibitory Concentration (MIC),Enterococcus faecalis,8 µg/mL
same,Minimum Inhibitory Concentration (MIC),Clostridium perfringes,2 µg/mL
same,Minimum Inhibitory Concentration (MIC),Pasteurella multocida,1 µg/mL
same,time for which serum concentration exceeds the MIC for several bacterial organisms,[2],more than 190 hours
same,half-life,[3],10 to 12 h
same,stability in acidic environments,[4],acid labile
same,elimination T1/2,[5],about 73.5 hours
